Data: patent publication US6432948B1, “USE OF 7-(2-OXA-5,8-DIAZABICYLCO[4.3.0]NON-8-YL)-QUINOLONE CARBOXYLIC ACID AND NAPHTHYRIDON CARBOXYLIC ACID DERIVATIVES FOR THE TREATMENT OF HELIOBACTER PYLORI INFECTIONS AND ASSOCIATED GASTRODUODENAL DISEASES” (Bayer Aktiengesellschaft, priority 1996, dated 2002)
Values after ≈ are worked out from the molar mass of the structure shown. Like-named read-outs stand apart in the source and are kept apart here.

Experiments:
[1] = test system: H. felis ATCC 49179; conditions: for Eradication of H. felis in the mouse model, monotherapy: therapeutically used doses; for Clearance % / Clearance (animals cleared / animals per group): infected mice, 2 × 10 mg/kg, 70 day treatment as printed in table title (7 days elsewhere in the source), 5 animals per group
Experimental: The bacteria are administered by stomach tube as a suspension (0.1 ml containing 10^8-10^9 bacteria) 4 times in the course of 7 days. Alternatively to this, stomach homogenates of previously infected mice were used for infection.
3-5 days after establishment of the infection, the treatment with test preparations was begun. […] In some cases, the bacterial eradication was also determined 2-4 weeks after the end of treatment. Following the “CLO” test used in clinical diagnosis, a urease test on a microtitre basis was employed. Defined stomach biopsy samples were tested for colour change within 24 hours.

[2] = test system: H. pylori NCTC 1163 7; assay: MIC, agar dilution test; format: cell-based; conditions: Helicobacter pylori
Experimental: . The test substances were tested in replica dishes, which contained falling concentrations of the active compound at in each case doubled dilution. For inoculation, fresh Helicobacter cultures from liquid culture or suspension of the bacteria from agar plates were used. The inoculated agar plates were incubated at 37° C. in an atmosphere containing 5-10% of CO2 for 48-72 hours. The MIC value (mg/l) which was read off indicates the lowest active compound concentration at which no growth was to be detected using the naked eye. The following Helicobacter isolates were used: H. felis ATCC 49179, H. pylori NCTC 1163 7, H. pylori clinical isolate 008.

[3] = test system: H. pylori clinical isolate 008; assay: MIC, agar dilution test; format: cell-based; conditions: Helicobacter pylori, Columbia agar or Basis 2 agar with 10% lysed horse blood, 37° C., 48-72 hours, read-out: MIC (mg/l) H. pylori 008
Experimental: For inoculation, fresh Helicobacter cultures from liquid culture or suspension of the bacteria from agar plates were used. The inoculated agar plates were incubated at 37° C. in an atmosphere containing 5-10% of CO2 for 48-72 hours.

[4] = NCTC1163, agar dilution test, Columbia agar or Basis 2 agar with 10% lysed horse blood, 37° C., 48-72 hours, read-out: MIC (mg/l) H. pylori 11637

Cl.O=C(O)c1cn([C@@H]2C[C@@H]2F)c2c(F)c(N3C[C@@H]4NCCO[C@@H]4C3)c(F)cc2c1=O
melting point: 275 to 280 °C (dec.)

Cl.O=C(O)c1cn([C@@H]2C[C@@H]2F)c2c(Cl)c(N3C[C@@H]4NCCO[C@@H]4C3)c(F)cc2c1=O
melting point: 210 to 215 °C (dec.)

O=C(O)c1cn([C@@H]2C[C@@H]2F)c2cc(N3C[C@@H]4NCCO[C@@H]4C3)c(F)cc2c1=O (mixture of isomers) [Example 15, 6-Fluoro-1-(cis-2-fluorocyclopropyl)-1,4-dihydro-7-((1R,6S)-2-oxa-5,8-diazabicyclo[4.3.0]non-8-yl)-4-oxo-3-quinolinecarboxylic acid]
melting point: 236 to 238 °C (dec.)

O=C(O)c1cn([C@@H]2C[C@H]2F)c2cc(N3C[C@@H]4NCCO[C@@H]4C3)c(F)cc2c1=O (mixture of isomers) [Example 19, 6-Fluoro-1-(trans-2-fluorocyclopropyl)-1,4-dihydro-7-((1 R,6S)-2-oxa-5,8-diazabicyclo[4.3.0]non-8-yl)-4-oxo-3-quinolinecarboxylic acid]
melting point: 270 to 274 °C (dec.)

O=C(O)c1cn([C@@H]2C[C@H]2F)c2c(Cl)c(N3C[C@@H]4NCCO[C@@H]4C3)c(F)cc2c1=O (mixture of isomers) [Example 20, 8-Chloro-6-fluoro-1-(trans-2-fluorocyclopropyl)-1,4-dihydro-7-((1R,6S)-2-oxa-5,8-diazabicyclo[4.3.0]non-8-yl)-4-oxo-3-quinolinecarboxylic acid]
melting point: 160 to 164 °C (dec.)

O=C(O)c1cn([C@@H]2C[C@H]2F)c2nc(N3C[C@@H]4NCCO[C@@H]4C3)c(F)cc2c1=O (mixture of isomers) [Example 21, 6-Fluoro-1-(trans-2-fluorocyclopropyl)-1,4-dihydro-7-((1R,6s)-2-oxa-5,8-diazabicyclo[4.3.0]non-8-yl)-4-oxo-1,8-naphthyridine-3-carboxylic acid]
melting point: 310 to 314 °C (dec.)

O=C(O)c1cn(C2CC2)c2c(Cl)c(N3C[C@@H]4CCCN[C@@H]4C3)c(F)cc2c1=O [BAY Y 3118, 8-chloro-1-cyclopropyl-7-([S,S]-2,8-diazabicyclo[4.3.0]non-8-yl)-6-fluoro-1,4-dihydro-4-oxo-3-quinolinecarboxylic acid, reference compound]
Death of animals on account of toxicity at eradicating treatment ([1]; mouse model, monotherapeutic treatment): a large part of the animals not dying on account of the toxicity of the compound | Eradication of H. felis in the mouse model, monotherapy ([1]; monotherapeutic treatment): no eradication of H. felis can be achieved

O=C(O)c1cn(C2CC2)c2cc(N3CCNCC3)c(F)cc2c1=O [Ciprofloxacin, ciprofloxacin, reference compound]
MIC ([2]; NCTC1163, read-out: MIC (mg/l) H. pylori 11637): 0.125 mg/L (≈ 0.377 µM) | Eradication of H. felis in the mouse model, monotherapy ([1]; monotherapeutic treatment): not able to lead to an eradication

N#Cc1c(N2CC3NCCOC3C2)c(F)cc2c(=O)c(C(=O)O)cn(C3CC3)c12 (centres unmarked) [Example 1A]
MIC [3]: 0.06 mg/L (≈ 0.151 µM) | Eradication of the bacterium ([1]; 10-day treatment of the mice with 2×10 mg/kg): eradication of the bacterium | Clearance % [1]: 100% | Clearance (animals cleared / animals per group) [1]: 5/5

CN1COc2c(N3CC4NCCOC4C3)c(F)cc3c(=O)c(C(=O)O)cn1c23 [Example 2, 9-Fluoro-3-methyl-10-((1S,6S)-2-oxa-5,8-diazabicyclo[4.3.0]non-8-yl)-7-oxo-2,3-dihydro-7H-pyrido[1,2,3-d.e][1,3,4]benzoxadiazine-6-carboxylic acid]
MIC [3]: 0.06 mg/L (≈ 0.154 µM) | Clearance % [1]: 100% | Clearance (animals cleared / animals per group) [1]: 5/5

CC(CF)(CF)n1cc(C(=O)O)c(=O)c2cc(F)c(N3C[C@@H]4NCCO[C@@H]4C3)cc21 [Example 4, 1-(1-Fluoromethyl-1-methyl-2-fluoroethyl)-6-fluoro-7-[(1R,6S)-2-oxa-5,8-diazabicyclo[4.3.0]non-8-yl]-1,4-dihydro-4-oxo-3-quinolinecarboxylic acid]
MIC [3]: 0.25 mg/L (≈ 0.588 µM) | MIC [2, 4]: 0.06 mg/L (≈ 0.141 µM)

COc1c(N2C[C@@H]3NCCO[C@@H]3C2)c(F)cc2c(=O)c(C(=O)O)cn(C3CC3)c12.Cl [Example 6, 1-Cyclopropyl-6-fluoro-8-methoxy-7-[(1R,6S)-2-oxa-5,8-diazabicyclo[4.3.0]non-8-yl]-1,4-dihydro-4-oxo-3-quinolinecarboxylic acid hydrochloride]
MIC [3]: 0.06 mg/L | MIC [2, 4]: 0.06 mg/L

O=C(O)c1cn(C2CC2)c2c(OC(F)F)c(N3CC4NCCOC4C3)c(F)cc2c1=O [Example 8, 1-Cyclopropyl-8-difluoromethoxy-6-fluoro-1,4-dihydro-7-((1S,6S)-2-oxa-5 8-diazabicyclo[4.3.0]non-8-yl)-4-oxo-3-quinolinecarboxylic acid]
MIC [3]: 0.06 mg/L (≈ 0.137 µM) | MIC [2, 4]: 0.06 mg/L (≈ 0.137 µM)

COc1c(N2C[C@@H]3NCCO[C@H]3C2)c(F)cc2c(=O)c(C(=O)O)cn(C3CC3)c12.Cl [Example 13]
MIC [3]: 0.125 mg/L | MIC [2, 4]: 0.06 mg/L

CCn1cc(C(=O)O)c(=O)c2cc(F)c(N3CCNC(C)C3)c(F)c21 (centres unmarked) [lomefloxacin, reference compound]
Eradication of H. felis in the mouse model, monotherapy ([1]; monotherapeutic treatment): not able to lead to an eradication
